How the values were obtained:
[1] = Particle size distribution (PSD) by laser diffraction, Malvern Mastersizer 2000; type: physicochemical
Experimental: (§1) For the purposes herein, particle size distribution (PSD) is determined as the percent volume, i.e. D(90) and D(3,2) and was measured by laser diffraction using a Malvern Mastersizer 2000 equipped with a Hydro 2000 S dispersion unit.
(§2) The measurements were performed in saturated water dispersion medium (refractive index=[…] (general purpose)). The water was saturated with olanzapine to prevent dissolution of the sample while measuring. Dispersion medium was prepared by adding about 3 gm olanzapine to 1 liter water, sonicating in an ultrasound bath for 30 min and filtering (0.22-0.45 μm). The samples were added as concentrated suspension under stirring until an obscuration rate of 10-20% was reached. The results were values arising from ten measurement cycles with a recirculation time (after sonification) of 30 sec.
(§3) Sample preparation: Samples were prepared as concentrated suspensions. About 50-100 mg of the olanzapine sample was added with a spatula to a small sized glass beaker and several drops of saturated water dispersion medium was added. A paste was obtained by mild mixing, and an additional quantity (1 ml) of saturated water dispersion medium was added in order to obtain a concentrated homogeneous suspension.

[2] = Bulk/tapped density, Ph. Eur. 2.9.34 Method 1, ERWEKA SVM 122; type: physicochemical; details: Table 1
Experimental: Bulk density/tapped density were determined by European Pharmacopoeia 2.9.34. Method 1 (https://www.drugfuture.com/Pharmacopoeia/EP7/DATA/20934E.PDF; PDF downloaded Nov. 14, 2021).
The bulk and tapped densities were determined using the Tapped Density Tester SVM 122 from ERWEKA, equipped with a 100 mL glass cylinder. Approximately 30 g of the powder was carefully poured into the 100 mL measuring cylinder with a funnel. Bulk density was calculated by dividing the amount of powder (in gram) by the measured volume (mL). The tapped density was then determined as follows:
If the difference between V500 and V1250 was bigger than 2 mL, taps were repeated: i.e. tapped another 1250× and repeated until difference was below 2 mL. • Bulk density=sample weight/volume before tapping. • Tapped density=weight/volume after tapping. • Calculation: […]

[3] = Flow function by FT4 Powder Rheometer, shear test 9 kPa; type: physicochemical; details: 9 kPa shear test, 1 ml cell
Experimental: The flow function (FF) was determined by using FT4 Powder Rheometer, Freeman FT4 instrument, and standard Freeman shear test −9 kPa (using small cell 1 ml), according to the procedure below: • Compact to 9 kPa for 60 s • Pre shear hold 7 kPa for 16 s • Shear test at 7 kPa (Shear at 18°/min for 10°, auto detected peak torque yes) • Pre shear hold 6 kPa for 16 s • Shear test at 6 kPa (Shear at 18°/min for 10°, auto detected peak torque yes) • Pre shear hold 5 kPa for 16 s • Shear test at 5 kPa (Shear at 18°/min for 10°, auto detected peak torque yes) • Pre shear hold 4 kPa for 16 s • Shear test at 4 kPa (Shear at 18°/min for 10°, auto detected peak torque yes) • Pre shear hold 3 kPa for 16 s • Shear test at 3 kPa (Shear at 18°/min for 10°, auto detected peak torque yes)

[4] = PSD of bulk API compared to PSD of API in vial after dry heat sterilization; type: physicochemical; details: for D(3,2) / D(90): Table 3, bulk API or API in vial after dry heat sterilization 150-160° C., two hours, per sample name
Experimental: as §1, §2, §3
Closed and crimped vials filled with API were terminally sterilized at 150-160° C. using dry heat for two hours in dry heat oven SP-470 by Kambič (Slovenia). Additional methods of terminal sterilization include radiation including for example, gamma radiation, X-ray, electron beam and the like with similar results. Alternatively, the API may be prepared aseptically
The manufacturing process for the final drug product includes a terminal sterilization step, and specifically the quality of the bulk API should not be affected by sterilization. Therefore, after the dry heat sterilization, samples of API in vials filled with two batches (with low PSD) were analyzed for PSD and compared to starting API material.

[5] = background statement; cited from earlier work
[6] = Table 4, listed as Olanzapine S2-920
[7] = Table 4, listed as Olanzapine S1-920
[8] = Table 4, listed as Olanzapine S3-221
[9] = Table 4, listed as Olanzapine M7-121
[10] = Table 4, listed as Olanzapine M1-010
[11] = Table 4, listed as Olanzapine M6-020
[12] = Table 4, listed as Olanzapine S3-020
[13] = Table 4, listed as Olanzapine S1-220

SMILES	D(3,2) ([1]; Table 1, bulk API batch) [μm]	D(90) ([1]; Table 1, bulk API batch) [μm]	TD (tapped density) [2] [g/mL]	Flow function [3]	D(3,2) [4] [μm]	D(90) [4] [μm]	other results
Cc1cc2c(s1)Nc1ccccc1N=C2N1CCN(C)CC1 [Batch S2-920, 2-methyl-4-(4-methyl-1-piperazinyl)-10H-thieno[2,3-b][1,5]benzodiazepine]	7.6	38	0.45	2.0			D(90) [1, 6]: 38 μm; D(100) [1, 6]: 136 μm
Cc1cc2c(s1)Nc1ccccc1N=C2N1CCN(C)CC1 [Batch S1-920, 2-methyl-4-(4-methyl-1-piperazinyl)-10H-thieno[2,3-b][1,5]benzodiazepine]	4.1	11	0.29	1.2	3.9	11	D(90) [1, 7]: 11 μm; D(100) [1, 7]: 21 μm
Cc1cc2c(s1)Nc1ccccc1N=C2N1CCN(C)CC1 [Batch S3-221, 2-methyl-4-(4-methyl-1-piperazinyl)-10H-thieno[2,3-b][1,5]benzodiazepine]	6.4	26	0.40	1.8			D(90) [1, 8]: 24 μm; D(100) [1, 8]: 61 μm
Cc1cc2c(s1)Nc1ccccc1N=C2N1CCN(C)CC1 [Batch M7-121, 2-methyl-4-(4-methyl-1-piperazinyl)-10H-thieno[2,3-b][1,5]benzodiazepine]	8.3	42	0.50	2.1			D(90) [1, 9]: 40 μm; D(100) [1, 9]: 205 μm
Cc1cc2c(s1)Nc1ccccc1N=C2N1CCN(C)CC1 [Batch M1-010, 2-methyl-4-(4-methyl-1-piperazinyl)-10H-thieno[2,3-b][1,5]benzodiazepine]	4.2	13	0.37	1.4	4.7	14	D(90) [1, 10]: 14 μm; D(100) [1, 10]: 42 μm
Cc1cc2c(s1)Nc1ccccc1N=C2N1CCN(C)CC1 [Olanzapine S2-121, 2-methyl-4-(4-methyl-1-piperazinyl)-10H-thieno[2,3-b][1,5]benzodiazepine]							D(90) ([1]; Table 4): 27 μm; D(100) ([1]; Table 4): 196 μm
Cc1cc2c(s1)Nc1ccccc1N=C2N1CCN(C)CC1 [Batch M6-020, 2-methyl-4-(4-methyl-1-piperazinyl)-10H-thieno[2,3-b][1,5]benzodiazepine]	6.6	24	0.41	2.0	6.5	24	D(90) [1, 11]: 24 μm; D(100) [1, 11]: 205 μm
Cc1cc2c(s1)Nc1ccccc1N=C2N1CCN(C)CC1 [Olanzapine, 2-methyl-4-(4-methyl-1-piperazinyl)-10H-thieno[2,3-b][1,5]benzodiazepine]							Water solubility [5]: poor
Cc1cc2c(s1)Nc1ccccc1N=C2N1CCN(C)CC1 [Batch M2-121, 2-methyl-4-(4-methyl-1-piperazinyl)-10H-thieno[2,3-b][1,5]benzodiazepine]	6.4	30	0.39	1.5	7.5	40	
Cc1cc2c(s1)Nc1ccccc1N=C2N1CCN(C)CC1 [Olanzapine S4-221, 2-methyl-4-(4-methyl-1-piperazinyl)-10H-thieno[2,3-b][1,5]benzodiazepine]							D(90) ([1]; Table 4): 26 μm; D(100) ([1]; Table 4): 110 μm
Cc1cc2c(s1)Nc1ccccc1N=C2N1CCN(C)CC1 [Batch S3-020, 2-methyl-4-(4-methyl-1-piperazinyl)-10H-thieno[2,3-b][1,5]benzodiazepine]	5.4	17	0.28	1.3	5.2	16	D(90) [1, 12]: 16 μm; D(100) [1, 12]: 90 μm; PSD curves before and after sterilization ([4]; FIG. 4B): highly similar
Cc1cc2c(s1)Nc1ccccc1N=C2N1CCN(C)CC1 [Batch S1-220, 2-methyl-4-(4-methyl-1-piperazinyl)-10H-thieno[2,3-b][1,5]benzodiazepine]	6.1	26	0.39	1.5	5.8	29	D(90) [1, 13]: 29 μm; D(100) [1, 13]: 142 μm

From US20250073165A1, “OLANZAPINE, COMPOSITIONS THEREOF AND METHODS OF USE THEREOF” (Teva Pharmaceuticals International GmbH, priority 2022, published 2025)
